From ChEMBL document CHEMBL4706629, “New derivatives of 4'-phenyl-2,2':6',2″-terpyridine as promising anticancer agents” (Eur J Med Chem, 2021) come the findings set out here.

The test system of data set [1] is PANC-1. The data set is described as follows: Up regulation of p53 expression in human PANC-1 cells at 5 uM measured after 24 hrs by Western blot analysis relative to control. It counts as functional, cell-based. A general note: In western blotting, separated proteins are transferred to a membrane and probed.
For the next data set, the system named is U-251. The data set is described as follows: Cytotoxicity against human U-251 cells assessed as reduction in cell viability measured after 72 hrs by MTS assay. It counts as functional, cell-based. As to conditions: U-251, 72 h. A general note: Tetrazolium dyes change colour on reduction, which living cells bring about.
A further data set deals with NHDF. The data set is described as follows: Cytotoxicity against NHDF cells assessed as reduction in cell viability measured after 72 hrs by MTS assay. It counts as cell-based. As to conditions: Homo sapiens.
The test system of data set [2] is MCF7. The data set is described as follows: Up regulation of p53 expression in human MCF7 cells at 5 uM measured after 24 hrs by Western blot analysis. It counts as functional, cell-based.
The subject of data set [3] is MCF7. The data set is described as follows: Cytotoxicity against human MCF7 cells assessed as reduction in cell viability measured after 72 hrs by MTS assay. In kind it is functional, cell-based. As to conditions: MCF7, 72 h.
The test system of the next data set is K562. The data set is described as follows: Cytotoxicity against human K562 cells assessed as reduction in cell viability measured after 72 hrs by MTS assay. As to conditions: K562, 72 h. It counts as functional, cell-based.
A short description of data set [4]: Dark toxicity in human HeLa cells assessed as reduction in cell viability measured after 4 hrs by resazurin dye based fluorescence assay. A general note: Alamar Blue is a resazurin reagent that responds to reducing activity.
The subject of data set [5] is PANC-1. The data set is described as follows: Cytotoxicity against human PANC-1 cells assessed as reduction in cell viability measured after 72 hrs by MTS assay. In kind it is functional, cell-based. As to conditions: PANC-1, 72 h.
Data set [6] in a line: Drug localization in mitochondria of human MCF7 cells at 25 uM measured after 2 hrs by mitotracker orange dye based microscopic analysis. It counts as ADME. As to conditions: mcf7, 2 h.
The next data set concerns HCT-116. The data set is described as follows: Cytotoxicity against human HCT-116 cells assessed as reduction in cell viability measured after 72 hrs by MTS assay. It counts as functional, cell-based. As to conditions: HCT-116, 72 h.
Data set [7] can be described thus: Drug localization in lysosomes of human MCF7 cells at 25 uM measured after 2 hrs by lysotracker red DND-99 dye based microscopic analysis. It counts as ADME, subcellular, Lysosome. As to conditions: mcf7, 2 h.
Data set [8] concerns PANC-1. The data set is described as follows: Induction of autophagy in human PANC-1 cells assessed as increase in LC3 expression at 25 uM measured after 24 hrs by muse cell analyzer based fluorescence assay relative to control. In kind it is functional.

Activity calls are given as the source filed them. The rule behind the calls is not given here.

In general, IC50 refers to the concentration at which inhibition is half-maximal. Turning to `COc1cccc2c1C(=O)c1c(O)c3c(c(O)c1C2=O)C[C@@](O)(C(=O)CO)C[C@@H]3O[C@H]1C[C@H](N)[C@H](O)[C@H](C)O1` [DOXORUBICIN], the outcome in the data set with PANC-1 [1] and with MCF7 [2] was Active. Also, the IC50 in the data set on U-251 was 52 nM; with NHDF, 137 nM; with MCF7 [3] it was 405 nM; in the data set with K562, 19 nM.
Take `COc1cc(-c2cccnc2)nc(-c2ccccn2)c1`: in [4], the IC50 at 4 h was 40900 nM.
Consider `CC1(C)c2ccccc2-c2ccc(-c3cn(-c4ccc(-c5cc(-c6ccccn6)nc(-c6ccccn6)c5)cc4)nn3)cc21`, for which the 50% inhibitory concentration (IC50) with PANC-1 [5] was 1870 nM; in the data set on U-251, 1880 nM; in the data set with HCT-116 it was 1290 nM; with NHDF, > 25000 nM; in the data set with MCF7 [3], 1070 nM; with K562, 625 nM. Further, the Drug uptake entry in data set [6] and in data set [7] was “Active” in each case.
`c1ccc(-c2cn(-c3ccc(-c4cc(-c5ccccn5)nc(-c5ccccn5)c4)cc3)nn2)cc1`: the concentration for half-maximal inhibition (IC50) was 287 nM with PANC-1 [5]; 955 nM with U-251; 249 nM in the data set with HCT-116; > 25000 nM in the data set with NHDF; 477 nM in the data set with MCF7 [3]; 741 nM with K562.
On to `Clc1cc(-c2cccnc2)nc(-c2ccccn2)c1`, for which, in data set [4], the IC50 at 4 h stood at 26500 nM.
On to `CCCCCCCCCCn1cc(-c2ccc(-c3cc(-c4nccs4)nc(-c4nccs4)c3)cc2)nn1`, for which the IC50 in the data set with PANC-1 [5], in the data set on U-251, in the data set on HCT-116, with MCF7 [3] and with K562 was > 25000 nM throughout.
For the compound `O=C(O)c1cc(-c2cccnc2)nc(-c2ccccn2)c1`, the IC50 at 4 h in data set [4] was 50500 nM.
With `CCCCCCCCCCCCc1cn(-c2ccc(-c3cc(-c4ccccn4)nc(-c4ccccn4)c3)cc2)nn1`, the 50% inhibitory concentration (IC50) in the data set on PANC-1 [5] was > 25000 nM; with U-251, 20400 nM; with HCT-116 it was 13500 nM; in the data set with NHDF it was 9070 nM; in the data set on MCF7 [3], 11200 nM; in the data set on K562 it was 19800 nM.
Regarding `CCCCCOc1ccc(-c2cn(-c3ccc(-c4cc(-c5ccccn5)nc(-c5ccccn5)c4)cc3)nn2)cc1`, the IC50 with PANC-1 [5] was 374 nM; with U-251, 609 nM; in the data set on HCT-116, 491 nM; with NHDF, > 25000 nM; in the data set with MCF7 [3], 871 nM; with K562 it was 1790 nM.
On to `Cc1ccc(NC(=O)c2ccc(CN3CCN(C)CC3)cc2)cc1Nc1nccc(-c2cccnc2)n1` [IMATINIB], for which the “fold change (FC)” value with PANC-1 [8] is 2.
`N#Cc1ccc(-c2cn(-c3ccc(-c4cc(-c5ccccn5)nc(-c5ccccn5)c4)cc3)nn2)cc1`: the IC50 is 920 nM in the data set with PANC-1 [5]; 1830 nM in the data set on U-251; 1310 nM in the data set on HCT-116; 2030 nM in the data set on NHDF; 372 nM in the data set with MCF7 [3]; 1570 nM in the data set with K562.
For `CCCCCCCCCCn1cc(-c2ccc(-c3cc(-c4cnccn4)nc(-c4cnccn4)c3)cc2)nn1`, the IC50 with PANC-1 [5], with U-251, in the data set with HCT-116, with MCF7 [3] and in the data set on K562 was > 25000 nM each time.
Take `Oc1cn(-c2ccc(-c3cc(-c4ccccn4)nc(-c4ccccn4)c3)cc2)nn1`: the IC50 in the data set with PANC-1 [5] was 689 nM; in the data set on U-251, 1400 nM; in the data set with HCT-116, 782 nM; with NHDF it was 11800 nM; in the data set with MCF7 [3], 592 nM; in the data set with K562, 1310 nM.
Take `c1ccc(-c2cccc(-c3cccnc3)n2)nc1`: the half-maximal inhibitory concentration (IC50) at 4 h in data set [4] came out at 35100 nM.
As for `c1ccc(-c2cc(-c3ccc(-n4cc(-c5ccc6sc7ccccc7c6c5)nn4)cc3)cc(-c3ccccn3)n2)nc1`, the IC50 is 784 nM with PANC-1 [5]; 2390 nM in the data set with U-251; 918 nM in the data set with HCT-116; > 25000 nM with NHDF; 1720 nM with MCF7 [3]; 7380 nM in the data set on K562.
For `c1ccc(-c2cc(-c3ccc(-n4cc(-c5ccc(-c6cccs6)s5)nn4)cc3)cc(-c3ccccn3)n2)nc1`, the IC50 in the data set on PANC-1 [5] is 2220 nM; in the data set on U-251 it was 3590 nM; in the data set with HCT-116 it was 822 nM; in the data set with NHDF, > 25000 nM; with MCF7 [3], 1790 nM; with K562 it was 1950 nM.
Take `CCCCCCCCn1c2ccccc2c2cc(-c3cn(-c4ccc(-c5cc(-c6ccccn6)nc(-c6ccccn6)c5)cc4)nn3)ccc21`: the IC50 in the data set with PANC-1 [5] is 3590 nM; in the data set with U-251, 10100 nM; with HCT-116, 6260 nM; in the data set on NHDF, > 25000 nM; in the data set with MCF7 [3], 9960 nM; in the data set on K562 it was 5500 nM.
Turning to `CN(C)c1cc(-c2cccnc2)nc(-c2ccccn2)c1`, the IC50 at 4 h in data set [4] stood at 19600 nM.
